Measurements taken from PubChem BioAssay AID210 (DTP/NCI, 2004).
Toxic doses and inconclusive results are not listed.

System: CD2F1 mice, ip Colon 26 adenocarcinoma, median survival T/C
Experiment: NCI In Vivo Anticancer Drug Screen. Data for tumor model Colon 26 Adenocarcinoma (intraperitoneal) in CD2F1 (CDF1) mice
Details: endpoint: median survival time, higher = longer survival
Description: The antitumor activity of compounds was measured in mice bearing transplantable tumors. Survival or tumor size were measured and the results are expressed as the measurement made in the treated group (T) divided by the measurement made in the vehicle treated control group (C). The tumor model used in this assay is Colon 26 Adenocarcinoma (intraperitoneal) in CD2F1 (CDF1) mice

## CO[C@@]12[C@H](COC(N)=O)C3=C(C(=O)C(C)=C(N)C3=O)N1C[C@@H]1N[C@@H]12
dose: 1.0 mg/kg/injection, schedule: Q01DX004 (ip), vehicle: saline
  T/C: 122 % of control
dose: 1.0 mg/kg/injection, schedule: Q03DX002 (ip), vehicle: saline
  T/C: 120 % of control
dose: 2.0 mg/kg/injection, schedule: Q01DX005 (ip), vehicle: saline
  T/C: 96 % of control
dose: 2.0 mg/kg/injection, schedule: Q03DX002 (ip), vehicle: saline
  T/C: 113 % of control
dose: 2.0 mg/kg/injection, schedule: Q07DX003 (ip), vehicle: Klucel (hydroxypropylcellulose) (HPC)
  T/C: 195 % of control
dose: 2.0 mg/kg/injection, schedule: Q07DX003 (ip), vehicle: saline
  T/C: 152 % of control
dose: 2.9 mg/kg/injection, schedule: Q07DX003 (ip), vehicle: Klucel (hydroxypropylcellulose) (HPC)
  T/C: 183 % of control
dose: 2.9 mg/kg/injection, schedule: Q07DX003 (ip), vehicle: saline
  T/C: 169 % of control
dose: 3.0 mg/kg/injection, schedule: Q01DX004 (ip), vehicle: saline
  T/C: 114 % of control
dose: 3.0 mg/kg/injection, schedule: Q01DX005 (ip), vehicle: saline
  T/C: 110 % of control
dose: 3.0 mg/kg/injection, schedule: Q03DX002 (ip), vehicle: saline
  T/C: 117 % of control
dose: 4.2 mg/kg/injection, schedule: Q07DX003 (ip), vehicle: Klucel (hydroxypropylcellulose) (HPC)
  T/C: 223 % of control
dose: 4.2 mg/kg/injection, schedule: Q07DX003 (ip), vehicle: saline
  T/C: 190 % of control
dose: 4.5 mg/kg/injection, schedule: Q01DX005 (ip), vehicle: saline
  T/C: 114 % of control
dose: 4.5 mg/kg/injection, schedule: Q03DX002 (ip), vehicle: saline
  T/C: 110 % of control
dose: 6.0 mg/kg/injection, schedule: Q01DX005 (ip), vehicle: saline
  T/C: 121 % of control
dose: 6.0 mg/kg/injection, schedule: Q07DX003 (ip), vehicle: Klucel (hydroxypropylcellulose) (HPC)
  T/C: 87 % of control
dose: 6.0 mg/kg/injection, schedule: Q07DX003 (ip), vehicle: saline
  T/C: 231 % of control

## CCCCCCCCCCCCCCCCS(=O)CC(O)COC(=O)c1ccc(C(=O)OCC(O)CS(=O)CCCCCCCCCCCCCCCC)cc1 (stereo unspecified)
dose: 12.5 mg/kg/injection, schedule: Q04DX002 (ip), vehicle: saline + alcohol
  T/C: 109 % of control
dose: 25.0 mg/kg/injection, schedule: Q04DX002 (ip), vehicle: saline + alcohol
  T/C: 100 % of control
dose: 50.0 mg/kg/injection, schedule: Q04DX002 (ip), vehicle: saline + alcohol
  T/C: 91 % of control
dose: 100.0 mg/kg/injection, schedule: Q04DX002 (ip), vehicle: saline + alcohol
  T/C: 91 % of control

## NCCNc1ccc(NCCN)c2c1C(=O)c1ccccc1C2=O
dose: 1.5 mg/kg/injection, schedule: Q01DX009 (ip), vehicle: acid diluted with saline
  T/C: 171 % of control
dose: 2.0 mg/kg/injection, schedule: Q01DX009 (ip), vehicle: acid diluted with saline
  T/C: 164 % of control
dose: 3.0 mg/kg/injection, schedule: Q01DX009 (ip), vehicle: acid diluted with saline
  T/C: 263 % of control
dose: 4.0 mg/kg/injection, schedule: Q01DX009 (ip), vehicle: acid diluted with saline
  T/C: 175 % of control
dose: 6.0 mg/kg/injection, schedule: Q01DX009 (ip), vehicle: acid diluted with saline
  T/C: 254 % of control
dose: 8.0 mg/kg/injection, schedule: Q01DX009 (ip), vehicle: acid diluted with saline
  T/C: 213 % of control
dose: 12.0 mg/kg/injection, schedule: Q01DX009 (ip), vehicle: acid diluted with saline
  T/C: 214 % of control
dose: 16.0 mg/kg/injection, schedule: Q01DX009 (ip), vehicle: acid diluted with saline
  T/C: 227 % of control

## C/C=C(\C)C(=O)OC1C(C)C2(O)C(C=C(CO)CC3(O)C(=O)C(C)=CC32)C2C(C)(C)C12OC(=O)CCCCCCCCC (stereo unspecified)
dose: 0.03 mg/kg/injection, schedule: Q04DX003 (ip), vehicle: saline + alcohol
  T/C: 93 % of control
dose: 0.06 mg/kg/injection, schedule: Q04DX003 (ip), vehicle: saline + alcohol
  T/C: 86 % of control
dose: 0.13 mg/kg/injection, schedule: Q04DX003 (ip), vehicle: saline + alcohol
  T/C: 90 % of control
dose: 0.25 mg/kg/injection, schedule: Q04DX003 (ip), vehicle: saline + alcohol
  T/C: 86 % of control

## CN1C(=O)NC(c2ccc(Cl)cc2)(c2ccc(Cl)cc2)C1=O
dose: 12.5 mg/kg/injection, schedule: Q04DX002 (ip), vehicle: distilled water + Tween-80
  T/C: 106 % of control
dose: 12.5 mg/kg/injection, schedule: Q04DX002 (ip), vehicle: saline with Tween-80
  T/C: 105 % of control
dose: 25.0 mg/kg/injection, schedule: Q04DX002 (ip), vehicle: distilled water + Tween-80
  T/C: 100 % of control
dose: 25.0 mg/kg/injection, schedule: Q04DX002 (ip), vehicle: saline with Tween-80
  T/C: 111 % of control
dose: 50.0 mg/kg/injection, schedule: Q04DX002 (ip), vehicle: distilled water + Tween-80
  T/C: 114 % of control
dose: 50.0 mg/kg/injection, schedule: Q04DX002 (ip), vehicle: saline with Tween-80
  T/C: 97 % of control
dose: 100.0 mg/kg/injection, schedule: Q04DX002 (ip), vehicle: saline with Tween-80
  T/C: 102 % of control
dose: 200.0 mg/kg/injection, schedule: Q04DX002 (ip), vehicle: saline with Tween-80
  T/C: 91 % of control
dose: 400.0 mg/kg/injection, schedule: Q04DX002 (ip), vehicle: saline with Tween-80
  T/C: 91 % of control

## C/C=C/C1=CC(=O)C(O)C1O (stereo unspecified)
dose: 45.0 mg/kg/injection, schedule: Q04DX002 (ip), vehicle: water
  T/C: 106 % of control
dose: 90.0 mg/kg/injection, schedule: Q04DX002 (ip), vehicle: water
  T/C: 99 % of control
dose: 180.0 mg/kg/injection, schedule: Q04DX002 (ip), vehicle: water
  T/C: 101 % of control

## CN(C)CCCNc1cccc2c1C(=O)c1cccc(NCCCN(C)C)c1C2=O
dose: 8.0 mg/kg/injection, schedule: Q01DX009 (ip), vehicle: saline
  T/C: 106 % of control
dose: 16.0 mg/kg/injection, schedule: Q01DX009 (ip), vehicle: saline
  T/C: 100 % of control
dose: 32.0 mg/kg/injection, schedule: Q01DX009 (ip), vehicle: saline
  T/C: 87 % of control

## CN(C)/N=N/c1nc[nH]c1C(N)=O
dose: 25.0 mg/kg/injection, schedule: Q04DX003 (ip), vehicle: carboxymethylcellulose (CMC)
  T/C: 112 % of control
dose: 50.0 mg/kg/injection, schedule: Q04DX003 (ip), vehicle: carboxymethylcellulose (CMC)
  T/C: 120 % of control
dose: 100.0 mg/kg/injection, schedule: Q04DX003 (ip), vehicle: carboxymethylcellulose (CMC)
  T/C: 122 % of control
dose: 240.0 mg/kg/injection, schedule: Q01DX001 (ip), vehicle: Klucel (hydroxypropylcellulose) (HPC)
  T/C: 95 % of control
dose: 400.0 mg/kg/injection, schedule: Q01DX001 (ip), vehicle: Klucel (hydroxypropylcellulose) (HPC)
  T/C: 92 % of control
dose: 400.0 mg/kg/injection, schedule: Q04DX003 (ip), vehicle: carboxymethylcellulose (CMC)
  T/C: 116 % of control
dose: 600.0 mg/kg/injection, schedule: Q01DX001 (ip), vehicle: Klucel (hydroxypropylcellulose) (HPC)
  T/C: 61 % of control

## CS(=O)(=O)OCCCNCCCOS(C)(=O)=O
dose: 18.75 mg/kg/injection, schedule: Q04DX003 (ip), vehicle: saline
  T/C: 194 % of control
dose: 37.5 mg/kg/injection, schedule: Q04DX003 (ip), vehicle: saline
  T/C: 241 % of control
dose: 75.0 mg/kg/injection, schedule: Q04DX003 (ip), vehicle: saline
  T/C: 338 % of control
dose: 150.0 mg/kg/injection, schedule: Q04DX003 (ip), vehicle: saline
  T/C: 338 % of control

## COc1cccc2c1C(=O)c1c(O)c3c(c(O)c1C2=O)C[C@@](O)(C(C)=O)C[C@@H]3OC1CC(N(C)C)C(O)C(C)O1 (stereo partly specified)
dose: 4.5 mg/kg/injection, schedule: Q07DX002 (iv), vehicle: saline
  T/C: 109 % of control
dose: 5.4 mg/kg/injection, schedule: Q04DX003 (ip), vehicle: water
  T/C: 119 % of control
dose: 7.0 mg/kg/injection, schedule: Q07DX002 (iv), vehicle: saline
  T/C: 114 % of control
dose: 11.0 mg/kg/injection, schedule: Q07DX002 (iv), vehicle: saline
  T/C: 113 % of control
dose: 15.0 mg/kg/injection, schedule: Q04DX003 (ip), vehicle: water
  T/C: 88 % of control
dose: 18.0 mg/kg/injection, schedule: Q07DX002 (iv), vehicle: saline
  T/C: 109 % of control
dose: 27.0 mg/kg/injection, schedule: Q07DX002 (iv), vehicle: saline
  T/C: 108 % of control
dose: 41.0 mg/kg/injection, schedule: Q07DX002 (iv), vehicle: saline
  T/C: 94 % of control

## CCC1(O)CC2CN(CCc3c([nH]c4ccccc34)C(C(=O)OC)(c3cc4c(cc3OC)N(C)C3C(O)(C(=O)NCCSSCCNC(=O)C5(O)C(O)C6(CC)C=CCN7CCC8(c9cc(C%10(C(=O)OC)CC%11CN(CCc%12c%10[nH]c%10ccccc%12%10)CC(O)(CC)C%11)c(OC)cc9N(C)C58)C76)C(O)C5(CC)C=CCN6CCC43C65)C2)C1 (stereo unspecified)
dose: 540.0 micrograms/kg/injection, schedule: Q04DX003 (ip), vehicle: saline
  T/C: 114 % of control
dose: 900.0 micrograms/kg/injection, schedule: Q04DX003 (ip), vehicle: saline
  T/C: 114 % of control
dose: 1500.0 micrograms/kg/injection, schedule: Q04DX003 (ip), vehicle: saline
  T/C: 96 % of control
